Paper PMC10080691, “Enzyme-Responsive Double-Locked Photodynamic Molecular Beacon for Targeted Photodynamic Anticancer Therapy” (Journal of the American Chemical Society, 2023)

Tested on: HeLa human cervical carcinoma cells
Experiment: Intracellular fluorescence by flow cytometry
Format: cell-based
Details: 2 μM 1 h + 6 h, SB-3CT (10 μM) and CA-074 Me (25 μM) 2 h pretreatment
Experimental: The cells were pretreated with SB-3CT (10 μM) and/or CA-074 Me (25 μM) or simply the neat medium for 2 h, followed by incubation with 1 (2 μM) for a further 1 h. After being rinsed with PBS, the cells were incubated in the medium for a further 6 h. As a negative control, the cells were simply incubated with 14 (2 μM) for 1 h, followed by post-incubation in the medium for 6 h. The fluorescence images of the cells under all these conditions were captured using a confocal laser scanning microscope. […] For the cells with pretreatment with both inhibitors, fluorescence due to 1 could hardly be seen. Similarly, for the cells being incubated with 14, the intracellular fluorescence was negligible. […] Again, for PMB 1, the fluorescence intensity was the highest for the cells without being pretreated with the two inhibitors. […] For HeLa cells being treated with 1, the fluorescence intensity of the native cells (i.e., the dual activated condition) was just 3.2-fold that of the cells under the dual inhibited condition. […]
Confocal Fluorescence Microscopic Studies […]
The cells were then rinsed with PBS twice before being examined with a Leica TCS SP8 high - speed confocal microscope equipped with a 638 nm laser. The fluorescence was monitored at 650−750 nm. The images were digitized and analyzed using a Leica Application Suite X […]

CCN(CC)c1ccc2nc3ccc(/N=N/c4ccc(N(C)CCCNC(=O)OC[C@@H]5[C@@H]6CCc7nnn(CC(=O)NCCCC[C@@H]8NC(=O)CNC(=O)[C@H](CCCCN)NC(=O)[C@H](CCCNC(=N)N)NC(=O)[C@H](C(C)C)NC(=O)CNC(=O)[C@H](CC(C)C)NC(=O)[C@@H]9CCCN9C(=O)[C@H](CCCCN)NC(=O)[C@@H](N)CSCc9cc(COc%10ccc(C%11=C%12C(C)=C(I)C(/C=C/c%13ccc(OCCOCCOCCOC)cc%13)=[N+]%12[B-](F)(F)n%12c(/C=C/c%13ccc(OCCOCCOCCOC)cc%13)c(I)c(C)c%12%11)cc%10)cc(c9)CSC[C@@H](C(N)=O)NC(=O)[C@H](CCCCN)NC(=O)[C@H](CCCCN)NC(=O)CNC(=O)[C@H](CC(C)C)NC(=O)[C@H](Cc9ccccc9)NC(=O)CNC(=O)[C@H](CCCCN)NC(=O)CNC8=O)c7CC[C@@H]65)cc4)cc3[n+](-c3ccccc3)c2c1 [compound 1]
intracellular fluorescence intensity, native cells relative to dual inhibited condition: 3.2 fold
